Measurements taken from patent publication US9732075B2, “Benzimidazole-proline derivatives” (IDORSIA PHARMACEUTICALS LTD, priority 2012, dated 2017).

How the values were obtained:
human orexin-2 receptor = human orexin-2 receptor (Homo sapiens (Human), UniProt O43614); assay: In vitro assay: intracellular calcium measurements (FLIPR), antagonistic activity; assay type: cell-based; conditions: CHO cells expressing human orexin-2 receptor, orexin-A agonist, geometric mean, read-out: IC50 Ox2
Procedure, shortened: (§1)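 Dye-loaded CHO cells expressing either human orexin receptor are exposed to test antagonist for 120 min, then stimulated with orexin-A at 3 nM.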

human orexin-1 receptor = human orexin-1 receptor (Homo sapiens (Human), UniProt O43613); assay: as above; assay type: cell-based; conditions: CHO cells expressing human orexin-1 receptor, orexin-A agonist, geometric mean, read-out: IC50 Ox1
human orexin-1 receptor, sequence (O43613 whole entry): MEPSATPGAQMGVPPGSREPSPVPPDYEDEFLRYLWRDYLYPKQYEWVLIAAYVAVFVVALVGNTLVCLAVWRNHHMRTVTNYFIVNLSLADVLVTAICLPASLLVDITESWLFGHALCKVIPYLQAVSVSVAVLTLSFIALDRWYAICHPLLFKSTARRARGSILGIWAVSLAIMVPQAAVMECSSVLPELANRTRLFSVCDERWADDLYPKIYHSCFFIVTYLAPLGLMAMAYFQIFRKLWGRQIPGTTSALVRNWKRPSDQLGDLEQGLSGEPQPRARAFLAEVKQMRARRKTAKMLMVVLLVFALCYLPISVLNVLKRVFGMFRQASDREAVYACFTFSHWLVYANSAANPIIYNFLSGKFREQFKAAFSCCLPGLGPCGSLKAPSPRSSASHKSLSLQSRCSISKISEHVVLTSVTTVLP
Procedure, shortened: as §1

human orexin-2 receptor, sequence (O43614 whole entry): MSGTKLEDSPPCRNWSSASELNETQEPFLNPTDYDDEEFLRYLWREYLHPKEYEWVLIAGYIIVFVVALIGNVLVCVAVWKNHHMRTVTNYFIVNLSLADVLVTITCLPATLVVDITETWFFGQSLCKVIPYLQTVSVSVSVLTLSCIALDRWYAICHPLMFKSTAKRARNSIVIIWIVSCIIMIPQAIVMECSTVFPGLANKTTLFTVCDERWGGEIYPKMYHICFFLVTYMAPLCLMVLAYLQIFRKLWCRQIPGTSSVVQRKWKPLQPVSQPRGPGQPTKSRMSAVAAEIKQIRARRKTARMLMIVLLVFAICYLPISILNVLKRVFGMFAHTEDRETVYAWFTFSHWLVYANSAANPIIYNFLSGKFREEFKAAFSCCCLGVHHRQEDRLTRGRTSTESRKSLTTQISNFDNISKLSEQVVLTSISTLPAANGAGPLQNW

Row | Structure (SMILES) | IC50 (human orexin-2 receptor) [nM] | IC50 (human orexin-1 receptor) [nM]
1 | Cc1cc2[nH]c([C@@H]3[C@@H](C)CCN3C(=O)c3cc(C(F)(F)F)ccc3-c3ccccc3)nc2cc1Cl [Ex. 4.114] | 1360 | 33
2 | Cc1ccc(-c2ccccc2)c(C(=O)N2CC[C@H](C)[C@H]2c2nc3cc(Cl)c(C)cc3[nH]2)c1 [Ex. 4.116] | 198 | 6
3 | Cc1cc2[nH]c([C@@H]3[C@@H](C)CCN3C(=O)c3c(-c4cccnc4)ccc(C)c3F)nc2cc1Cl [Ex. 4.117] | 2570 | 16
4 | COc1cccc(-c2sc(C)nc2C(=O)N2CC[C@H](C)[C@H]2c2nc3c(Cl)cccc3[nH]2)c1 [Ex. 4.121] | 475 | 6
5 | Cc1cccc(-c2sc(C)nc2C(=O)N2CC[C@H](C)[C@H]2c2nc3c(Cl)cccc3[nH]2)c1 [Ex. 4.122] | 610 | 3
6 | Cc1nc(C(=O)N2CC[C@H](C)[C@H]2c2nc3c(Cl)cccc3[nH]2)c(-c2ccc(Br)cc2)s1 [Ex. 4.123] | 871 | 21
7 | Cc1nc(C(=O)N2CC[C@H](C)[C@H]2c2nc3c(Cl)cccc3[nH]2)c(-c2ccc(F)c(F)c2)s1 [Ex. 4.126] | 2380 | 43
8 | Cc1ccc(-c2sc(N(C)C)nc2C(=O)N2CC[C@H](C)[C@H]2c2nc3c(Cl)cccc3[nH]2)cc1C [Ex. 4.128] | 387 | 1
9 | Cc1cc2[nH]c([C@@H]3[C@@H](C)CCN3C(=O)c3cc(F)ccc3-c3ncccn3)nc2cc1Cl [Ex. 4.131] | 501 | 23
10 | Cc1cc2[nH]c([C@@H]3[C@@H](C)CCN3C(=O)c3c(-c4ncccn4)ccc(C)c3F)nc2cc1Cl [Ex. 4.132] | 1320 | 87
11 | Cc1cc2[nH]c([C@@H]3[C@@H](C)CCN3C(=O)c3c(F)cccc3-c3ncccn3)nc2cc1Cl [Ex. 4.133] | 359 | 25
12 | Cc1nc(C(=O)N2CC[C@H](C)[C@H]2c2nc3cc(C(F)(F)F)ccc3[nH]2)c(-c2ccc(F)cc2)s1 [Ex. 4.136] | 4360 | 14
13 | Cc1cccc(-c2sc(C)nc2C(=O)N2CC[C@H](C)[C@H]2c2nc3cc(C(F)(F)F)ccc3[nH]2)c1 [Ex. 4.138] | 1340 | 2
14 | Cc1ccc(-c2sc(C)nc2C(=O)N2CC[C@H](C)[C@H]2c2nc3cc(C(F)(F)F)ccc3[nH]2)cc1 [Ex. 4.140] | 2170 | 7
15 | Cc1nc(C(=O)N2CC[C@H](C)[C@H]2c2nc3cc(C(F)(F)F)ccc3[nH]2)c(-c2ccc(Br)cc2)s1 [Ex. 4.142] | 2160 | 6
16 | Cc1ccc(-c2sccc2C(=O)N2CC[C@H](C)[C@H]2c2nc3cc(C(F)(F)F)ccc3[nH]2)cc1C [Ex. 4.144] | 463 | 9
17 | Cc1nc(C(=O)N2CC[C@H](C)[C@H]2c2nc3c(C(F)(F)F)cccc3[nH]2)c(-c2ccc(Br)cc2)s1 [Ex. 4.151] | 185 | 5
18 | Cc1nc(C(=O)N2CC[C@H](C)[C@H]2c2nc3c(C(F)(F)F)cccc3[nH]2)c(-c2ccccc2Cl)s1 [Ex. 4.155] | 891 | 42
19 | Cc1nc(C(=O)N2CC[C@H](C)[C@H]2c2nc3c(C(F)(F)F)cccc3[nH]2)c(-c2cc(F)cc(F)c2)s1 [Ex. 4.157] | 1710 | 13
20 | Cc1ccc(-c2sccc2C(=O)N2CC[C@H](C)[C@H]2c2nc3c(C(F)(F)F)cccc3[nH]2)cc1C [Ex. 4.160] | 27 | 2
21 | Cc1c(Cl)ccc2[nH]c([C@@H]3[C@@H](C)CCN3C(=O)c3cc(Cl)ccc3-c3ccccc3)nc12 [Ex. 4.162] | 299 | 2
22 | Cc1ccc(-c2cccnc2)c(C(=O)N2CC[C@H](C)[C@H]2c2nc3c(C)c(Cl)ccc3[nH]2)c1 [Ex. 4.163] | 4400 | 20
23 | Cc1c(Cl)ccc2[nH]c([C@@H]3[C@@H](C)CCN3C(=O)c3cc(F)ccc3-c3ccccc3)nc12 [Ex. 4.164] | 725 | 7
24 | Cc1c(Cl)ccc2[nH]c([C@@H]3[C@@H](C)CCN3C(=O)c3cc(F)ccc3-c3ccccn3)nc12 [Ex. 4.165] | 968 | 20
25 | Cc1ccc(C(=O)N2CC[C@H](C)[C@H]2c2nc3c(C)c(Cl)ccc3[nH]2)c(-c2ccccc2)c1 [Ex. 4.168] | 486 | 10
26 | Cc1c(Cl)ccc2[nH]c([C@@H]3[C@@H](C)CCN3C(=O)c3c(F)cccc3-c3ccccc3)nc12 [Ex. 4.169] | 892 | 4
27 | Cc1c(Cl)ccc2[nH]c([C@@H]3[C@@H](C)CCN3C(=O)c3cc(C(F)(F)F)ccc3-c3ccccc3)nc12 [Ex. 4.170] | 1430 | 11
28 | Cc1ccc(-c2ccccc2)c(C(=O)N2CC[C@H](C)[C@H]2c2nc3c(C)c(Cl)ccc3[nH]2)c1F [Ex. 4.171] | 571 | 1.5
29 | Cc1ccc(-c2ccccc2)c(C(=O)N2CC[C@H](C)[C@H]2c2nc3c(C)c(Cl)ccc3[nH]2)c1 [Ex. 4.172] | 457 | 2

More lines, in order of falling IC50 (human orexin-2 receptor), values ahead:

Row | IC50 (human orexin-2 receptor) [nM] | IC50 (human orexin-1 receptor) [nM] | Structure (SMILES)
30 | 9650 | 13 | COc1ccccc1-c1sc(C)nc1C(=O)N1CC[C@H](C)[C@H]1c1nc2cc(C(F)(F)F)ccc2[nH]1 [Ex. 4.147]
31 | 4800 | 26 | Cc1nc(C(=O)N2CC[C@H](C)[C@H]2c2nc3c(C(F)(F)F)cccc3[nH]2)c(-c2ccc(F)c(F)c2)s1 [Ex. 4.154]
32 | 4350 | 50 | Cc1nc(C(=O)N2CC[C@H](C)[C@H]2c2nc3c(Cl)cccc3[nH]2)c(-c2ccc(F)cc2)s1 [Ex. 4.118]
33 | 3680 | 24 | Cc1nc(C(=O)N2CC[C@H](C)[C@H]2c2nc3cc(C(F)(F)F)ccc3[nH]2)c(-c2ccc(F)c(F)c2)s1 [Ex. 4.143]
34 | 3180 | 7 | Cc1nc(C(=O)N2CC[C@H](C)[C@H]2c2nc3cc(C(F)(F)F)ccc3[nH]2)c(-c2cc(F)cc(F)c2)s1 [Ex. 4.148]
35 | 3090 | 5 | COc1cccc(-c2sc(C)nc2C(=O)N2CC[C@H](C)[C@H]2c2nc3cc(C(F)(F)F)ccc3[nH]2)c1 [Ex. 4.137]
36 | 2760 | 5 | COc1ccc(-c2sc(C)nc2C(=O)N2CC[C@H](C)[C@H]2c2nc3cc(C(F)(F)F)ccc3[nH]2)cc1 [Ex. 4.141]
37 | 2750 | 35 | COc1ccccc1-c1sc(C)nc1C(=O)N1CC[C@H](C)[C@H]1c1nc2c(Cl)cccc2[nH]1 [Ex. 4.129]
38 | 2260 | 5 | Cc1nc(C(=O)N2CC[C@H](C)[C@H]2c2nc3cc(C(F)(F)F)ccc3[nH]2)c(-c2ccc(Cl)cc2)s1 [Ex. 4.139]
39 | 2110 | 6 | Cc1nc(C(=O)N2CC[C@H](C)[C@H]2c2nc3cc(C(F)(F)F)ccc3[nH]2)c(-c2ccccc2Cl)s1 [Ex. 4.146]
40 | 2050 | 21 | Cc1nc(C(=O)N2CC[C@H](C)[C@H]2c2nc3c(Cl)cccc3[nH]2)c(-c2cc(F)cc(F)c2)s1 [Ex. 4.119]
41 | 754 | 7 | Cc1cc2[nH]c([C@@H]3[C@@H](C)CCN3C(=O)c3c(-c4ccccc4)ccc(C)c3F)nc2cc1Cl [Ex. 4.115]
42 | 752 | 14 | Cc1nc(C(=O)N2CC[C@H](C)[C@H]2c2nc3c(C(F)(F)F)cccc3[nH]2)c(-c2ccc(F)cc2)s1 [Ex. 4.149]
43 | 725 | 14 | Cc1nc(C(=O)N2CC[C@H](C)[C@H]2c2nc3c(Cl)cccc3[nH]2)c(-c2ccc(Cl)cc2)s1 [Ex. 4.120]
44 | 591 | 8 | Cc1ccc(-c2sc(C)nc2C(=O)N2CC[C@H](C)[C@H]2c2nc3c(Cl)cccc3[nH]2)cc1 [Ex. 4.124]
45 | 568 | 2 | Cc1c(Cl)ccc2[nH]c([C@@H]3[C@@H](C)CCN3C(=O)c3cc(C#N)ccc3-c3ccccc3)nc12 [Ex. 4.166]
46 | 489 | 14 | COc1ccccc1-c1sc(C)nc1C(=O)N1CC[C@H](C)[C@H]1c1nc2c(C(F)(F)F)cccc2[nH]1 [Ex. 4.156]
47 | 308 | 2 | Cc1cccc(-c2sc(C)nc2C(=O)N2CC[C@H](C)[C@H]2c2nc3c(C(F)(F)F)cccc3[nH]2)c1 [Ex. 4.158]
48 | 215 | 4 | COc1ccc(-c2sc(C)nc2C(=O)N2CC[C@H](C)[C@H]2c2nc3c(C(F)(F)F)cccc3[nH]2)cc1 [Ex. 4.159]
49 | 203 | 4 | COc1cccc(C#Cc2ccccc2C(=O)N2CC[C@H](C)[C@H]2c2nc3cc(Cl)c(C)cc3[nH]2)c1 [Ex. 4.135]
50 | 191 | 2 | Cc1ccc(-c2ccccn2)c(C(=O)N2CC[C@H](C)[C@H]2c2nc3c(C)c(Cl)ccc3[nH]2)c1 [Ex. 4.161]
51 | 180 | 6 | Cc1nc(C(=O)N2CC[C@H](C)[C@H]2c2nc3c(C(F)(F)F)cccc3[nH]2)c(-c2ccc(Cl)cc2)s1 [Ex. 4.150]
52 | 144 | 13 | Cc1ccc(C(=O)N2CC[C@H](C)[C@H]2c2nc3c(C)c(Cl)ccc3[nH]2)c(-c2ccccn2)c1 [Ex. 4.167]
53 | 128 | 11 | Cc1ccc(C(=O)N2CC[C@H](C)[C@H]2c2nc3cc(Cl)c(C)cc3[nH]2)c(-c2ncccn2)c1 [Ex. 4.130]
54 | 86 | 1 | COc1cccc(C#Cc2ccccc2C(=O)N2CC[C@H](C)[C@H]2c2nc3c(C)c(Cl)ccc3[nH]2)c1 [Ex. 4.134]
55 | 81 | 1 | Cc1nc(C(=O)N2CC[C@H](C)[C@H]2c2nc3c(Cl)cccc3[nH]2)c(-c2ccc(C)c(C)c2)s1 [Ex. 4.125]
56 | 40 | 2 | Cc1nc(C(=O)N2CC[C@H](C)[C@H]2c2nc3c(C(F)(F)F)cccc3[nH]2)c(-c2ccc(C)c(C)c2)s1 [Ex. 4.152]
57 | 19 | 1 | Cc1ccc(-c2sccc2C(=O)N2CC[C@H](C)[C@H]2c2nc3c(Cl)cccc3[nH]2)cc1C [Ex. 4.127]
